The values that follow come from ChEMBL document CHEMBL1142750, “Gastric cytoprotective activity of ilicic aldehyde: structure-activity relationships” (2005).

Assay type in all cases: functional
In test [1] the test system is Rattus norvegicus. Nature of the test: Percent inhibition ethanol induced necrotic damage of gastric mucosa in male wistar rat after dosage; Dose range 25-100 mg/kg.
Test [2] has as its system Rattus norvegicus. In words: Gastric cytoprotective effect as ulcerative index was calculated in male wistar rat after 100 mg/kg dosage.
The subject of test [3] is Rattus norvegicus. In words: Gastric cytoprotective effect as ulcerative index was calculated in male wistar rat after 20 mg/kg dosage.
The subject of test [4] is Rattus norvegicus. Nature of the test: Percent inhibition ethanol induced necrotic damage of gastric mucosa in male wistar rat after 1 hr of contact with synthetic gastric juice; Dose range 25?100 mg/kg.
In test [5] the test system is Rattus norvegicus. Nature of the test: Percent inhibition ethanol induced necrotic damage of gastric mucosa in male wistar rat after 2 hr of contact with synthetic gastric juice; Dose range 25?100 mg/kg.
The subject of test [6] is Rattus norvegicus. Nature of the test: Gastric cytoprotective effect as ulcerative index was calculated in male wistar rat at 100 mg/kg dose after 1 hr of contact with synthetic gastric juice.
Test [7] relates to Rattus norvegicus. Nature of the test: Gastric cytoprotective effect as ulcerative index was calculated in male wistar rat at 100 mg/kg dose after 2 hr of contact with synthetic gastric juice.

Molecules are shown by their SMILES.

As to `C=C(C=O)[C@@H]1CC[C@@]2(C)CCCC(C)=C2C1`, the Inhibition of damage in test [1] worked out at 5%. The Ulcerative index in test [2] is listed as 4.62.
In test [1], `C=C(C=O)[C@@H]1CC[C@@]2(C)CCC[C@@](C)(O)C2C1` (some centres not stated) registered an Inhibition of damage of 96%. Further, the Ulcerative index in test [2] is recorded as 0.2.
In the case of `C=C(CO)[C@@H]1CC[C@@]2(C)CCC[C@@](C)(O)C2C1` (some centres not stated), the Inhibition of damage in test [1] is listed as 1%. The Ulcerative index in test [2] is reported as 4.8.
For the compound `C=C(C(=O)O)[C@@H]1CCC2=CC=C[C@H](C)[C@@]2(C)C1`, the Ulcerative index in test [3] is listed as 3.7. This compound gave an Inhibition of damage in test [1] of 23%.
In test [1], `C=C1C(=O)O[C@H]2C1CCC(C)=C1C(=O)C=C(C)[C@@H]12` (some centres not stated) had an Inhibition of damage of 97%. Moreover, in test [2], the Ulcerative index was 0.16.
On to `C=C(C=O)[C@@H]1CC[C@@]2(C)CCC[C@@](C)(OC(=O)C(F)(F)F)C2C1` (some centres not stated), for which the Inhibition of damage in test [4] is listed as 86%; in test [5], 96%. Besides, the Ulcerative index in test [6] is recorded as 0.66; in test [7], 0.16.
`C=C(C=O)[C@@H]1CC[C@@]2(C)CCC[C@@](C)(O[Si](C)(C)C)C2C1` (some centres not stated): in test [1], the Inhibition of damage came out at 48%. For the same compound, in test [2], the Ulcerative index is on record as 2.5.
In turn, `C=C1C(=O)O[C@]23C[C@H]1CC[C@@]2(C)CCC[C@H]3C` came in with an Inhibition of damage in test [1] of 48%. Also, the Ulcerative index in test [2] is 2.5.
The matching figures for `C=C1C(=O)O[C@]23C[C@H]1CC[C@@]2(C)CCCC3=C`: 30% and 3.37.
On to `C=C1CCC[C@]2(C)CC[C@@H](C(=C)C=O)CC12` (some centres not stated), for which the Inhibition of damage in test [1] was 23%. Moreover, in test [2], the Ulcerative index is given as 3.75.
`C=C(C(=O)O)[C@@H]1CC[C@@]2(C)CCC[C@@](C)(O)C2C1` (some centres not stated): the Inhibition of damage in test [1] worked out at 5%. Besides, the Ulcerative index in test [2] was 4.62.
For the compound `C=C(C(=O)O)[C@@H]1CC[C@@]2(C)CCCC(C)=C2C1`, the Inhibition of damage in test [1] was 17%. In test [2], the Ulcerative index is given as 4.
Turning to `COc1ccc2[nH]c([S+]([O-])Cc3ncc(C)c(OC)c3C)nc2c1` (configuration not stated) [OMEPRAZOLE], the Ulcerative index in test [3] was 3. Also, the Inhibition of damage in test [1] was determined as 38%.
As to `C=C(C(=O)OC)[C@@H]1CCC2=CC(=O)C[C@H](C)[C@@]2(C)C1` [TESSARIC ACID METHYL ESTER], the Inhibition of damage in test [1] is 5%. Further, the Ulcerative index in test [2] is recorded as 4.62.
The like results for `C=C(C(=O)O)[C@@H]1CCC2=CC(=O)C[C@H](C)[C@@]2(C)C1` [TESSARIC ACID] were, in that order, 5% and 4.62.
